From patent US7824868B2, “Formation of superfibronectin by BBK32 and uses therefor” (priority 2007, dated 2010)

B1: BBK32(21-354): Recombinant intact BBK32 protein, residues 21-354, including the C-terminal globular domain (SEQ ID NO: 5) (protein)
chain: DLFIRYEMKEESPGLFDKGNSILETSEESIKKPIKKPMNKKGKGKIARKKGKSKVSRKEPYIHSLKRDSANKSNFLQKNVILEEESLKTELLKEQSETRKEKIQKQQDEYKGMTQGSLNSLSGESGELEEPIESNEIDLTIDSDLRPKSSLQGIAGSNSISYTDEIEEEDYDQYYLDEYDEEDEEEIRLSNRYQSYLEGVKYNVDSAIQTITKIYNTYTLFSTKLTQMYSTRLDNFAKAKAKEEAAKFTKEDLEKNFKTLLNYIQVSVKTAANFVYINDTHAKRKLENIEAEIKTLIAKKIEQSNLYEAYKAIVTSILLMRDSLKEVQGIIDKNGVWY
modifications: recombinant peptide from residues 21-354 of BBK32
B2: BBK32(21-205): Recombinant fibronectin-binding segment, residues 21-205, of Borrelia burgdorferi lipoprotein BBK32 (SEQ ID NO: 6) (protein)
chain: DLFIRYEMKEESPGLFDKGNSILETSEESIKKPIKKPMNKKGKGKIARKKGKSKVSRKEPYIHSLKRDSANKSNFLQKNVILEEESLKTELLKEQSETRKEKIQKQQDEYKGMTQGSLNSLSGESGELEEPIESNEIDLTIDSDLRPKSSLQGIAGSNSISYTDEIEEEDYDQYYLDEYDEEDEEEIRL
modifications: recombinant peptide from residues 21-205 of BBK32

Columns and labels:
[1] = test system: fibronectin matrix of normal human dermal fibroblasts (NHDFs); assay: Effects on fibronectin matrix assembled by normal human dermal fibroblasts (immunostaining); assay type: cell-based; settings: 5 μM, 20 hours
Description: Cells were treated for 20 hours and then fixed. […] Treated cells were incubated for 20 hours and probed with Alexa Fluor 488-anti-fibronectin, monoclonal antibody IST-1, and monoclonal antibody IST-9. Images were taken using LSM 510 Confocal Microscope. Bar=10 μm.
4×10^4 adult normal human dermal fibroblasts (NHDFs) (Cambrex, East Rutherford, N.J.) were seeded onto glass coverslips in 24 well Costar tissue culture plates in Fibroblast growth media-2 (FGM-2) (Cambrex). Cells were allowed to grow for 48 hours and then BBK32, Anastellin, or FnbpA peptide D3 was added to a final concentration of 5 μM in FGM-2. Treated cells were incubated for 20 hours at 37° C., 5% CO2. After incubation, cells were washed with Dulbecco's PBS (DPBS) (Gibco, Invitrogen, Carlsbad, Calif.) and fixed with 2% paraformaldehyde for 30 minutes at room temperature. Following washing with DPBS, cells were blocked with 1% BSA for one hour at room temperature. Cells were then probed with Alexa Fluor 488-anti-fibronectin, Texas Red anti-His, monoclonal antibodies IST-1 (plasma and cellular fibronectin) and IST-9 (cellular fibronectin) (abcam, Cambridge, UK) or combinations of antibodies at a dilution of 1:3000 for one hour at room temperature. Following extensive washing with DPBS, appropriate fluorescently labeled secondary antibodies (Alexa Fluor 594-goat anti-mouse) (Invitrogen, Carlsbad, Calif.) were added at a dilution of 1:3000 and incubated for one hour at room temperature. After incubation, cells were washed extensively with DPBS and coverslips were mounted using Gel/Mount (biømeda, Foster City, Calif.) onto glass slides and images were taken using a LSM 510 Confocal Microscope (Zeiss).

[2] = test system: human umbilical vein endothelial cells (HUVECs); assay: Endothelial cell proliferation assay; assay type: cell-based; settings: 72 hours; for effect on proliferation of endothelial cells (in words): cell counts
Description: Cells were seeded onto tissue culture plates in full media and allowed to adhere for two hours. […] Cells were then incubated for 72 hours at 37° C., 5% CO2. After 72 hours, wells were washed, trypsinized, and counted (three counts/well, three wells/dose) using a hemacytometer.
1×10^4 human umbilical vein endothelial cells (HUVECs) (Cambrex) were seeded into Costar 24 well tissue culture plates in endothelial growth media-2 (EGM-2) (Cambrex) and allowed to adhere for two hours. After two hours, BBK32, Anastellin, and FnbpA peptide D3 were added in a dose dependent manner (triplicate) to the wells suspended in EGM-2. Cells were allowed to incubate for 72 hours at 37° C., 5% CO2. After 72 hours, wells were washed with PBS and cells were trypsinized with 0.5% trypsin/EDTA (Cambrex). Trypsinized cells were collected in microcentrifuge tubes and trypsin/EDTA was neutralized with EGM-2. Cells were counted from each well (three counts/well, three wells/dose) using a hemacytometer.

[3] = test system: fibronectin matrix assembly; settings: cited from earlier work
[4] = test system: plasma fibronectin; assay: Proteolytic (thermolysin) digestion of fibronectin aggregates; assay type: biochemical, human; settings: 20 μM inducer, 1 μM plasma fibronectin, 5 μg/ml thermolysin 2 hours, SDS-PAGE
plasma fibronectin, sequence (P02751 32-1265 limits assumed): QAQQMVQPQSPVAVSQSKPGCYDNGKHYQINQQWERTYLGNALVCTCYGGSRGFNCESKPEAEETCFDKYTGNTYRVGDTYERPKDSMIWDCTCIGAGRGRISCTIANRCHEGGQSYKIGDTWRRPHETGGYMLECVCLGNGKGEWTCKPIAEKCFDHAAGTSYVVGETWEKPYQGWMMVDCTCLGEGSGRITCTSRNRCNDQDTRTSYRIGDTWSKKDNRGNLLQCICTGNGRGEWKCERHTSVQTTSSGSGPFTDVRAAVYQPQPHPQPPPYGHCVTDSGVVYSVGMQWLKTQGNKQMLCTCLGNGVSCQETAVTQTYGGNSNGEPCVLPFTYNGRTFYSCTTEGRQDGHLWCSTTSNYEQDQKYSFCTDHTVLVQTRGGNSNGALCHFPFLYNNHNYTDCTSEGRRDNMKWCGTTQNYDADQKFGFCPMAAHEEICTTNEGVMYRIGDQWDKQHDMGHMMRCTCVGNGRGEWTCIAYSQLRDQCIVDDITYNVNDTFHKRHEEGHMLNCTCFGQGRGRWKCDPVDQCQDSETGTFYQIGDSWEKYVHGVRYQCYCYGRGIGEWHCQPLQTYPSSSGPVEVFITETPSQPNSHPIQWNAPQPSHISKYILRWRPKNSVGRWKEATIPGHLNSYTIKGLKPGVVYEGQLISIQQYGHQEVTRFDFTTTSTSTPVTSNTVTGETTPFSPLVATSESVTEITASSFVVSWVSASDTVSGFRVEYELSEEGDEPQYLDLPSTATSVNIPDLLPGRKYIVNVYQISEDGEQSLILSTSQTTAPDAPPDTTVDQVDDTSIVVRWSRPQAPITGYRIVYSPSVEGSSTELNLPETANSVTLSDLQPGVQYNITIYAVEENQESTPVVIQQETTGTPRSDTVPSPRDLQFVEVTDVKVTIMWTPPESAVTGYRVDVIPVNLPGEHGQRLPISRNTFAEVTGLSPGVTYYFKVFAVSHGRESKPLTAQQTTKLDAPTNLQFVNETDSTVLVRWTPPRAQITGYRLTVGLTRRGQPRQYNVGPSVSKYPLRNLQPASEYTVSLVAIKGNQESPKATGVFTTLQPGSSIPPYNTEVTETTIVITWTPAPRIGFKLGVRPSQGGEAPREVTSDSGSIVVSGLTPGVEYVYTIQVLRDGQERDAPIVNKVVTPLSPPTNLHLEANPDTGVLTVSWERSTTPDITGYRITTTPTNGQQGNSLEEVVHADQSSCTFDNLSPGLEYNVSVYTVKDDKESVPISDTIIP
Description: The sequences obtained, SSPVVID (SEQ ID No. 12), AVEENQE (SEQ ID No. 13), and ITETIP (SEQ ID No. 14), were located to the end of ^13F3, middle of ^3F3, and the start of ^1F3, respectively for both BBK32/fibronectin and Anastellin/fibronectin. Pre-stained protein standard (New England Biolabs).
BBK32, Anastellin, and plasma fibronectin were dialyzed into thermolysin digestion buffer (25 mM Tris, 0.5 mM EDTA, pH 8, 50 mM NaCl, and 2.5 mM CaCl2). 20 μM BBK32 or 20 μM Anastellin was added to 1 μM plasma fibronectin. Solutions were mixed and aggregates were allowed to form for one hour at room temperature. After one hour incubation, 5 μg/ml thermolysin (Sigma) was added to the BBK32-sFn, the Anastellin-sFn, and to plasma fibronectin. The solutions were incubated at room temperature with end-over-end mixing for 2 hours. Digestion was stopped after two hours with the addition of EDTA to a final concentration of 5 mM. Samples were then run on 4-20% gradient SDS-PAGE gels under non-reducing conditions. […] Excess stain was removed with 40% methanol and bands that were present in BBK32-sFn and Anastellin-sFn, but not in plasma fibronectin lanes, were excised and analyzed by N-terminal sequencing using Edman degradation (Protein Sequencing Division, Tufts University Core Facility, Boston, Mass.).

[5] = test system: purified plasma fibronectin; assay: Fibronectin aggregation assay (O.D.600); assay type: biochemical, human; settings: for induction of plasma fibronectin aggregation (in words): 1 μM purified plasma fibronectin, absorbance at 600 nm
purified plasma fibronectin, sequence (P02751 32-1265 limits assumed): as above
Description: BBK32, FnbpA peptide D3, Anastellin, and purified plasma fibronectin were centrifuged at 14,000 rpm for 15 minutes and then filtered through 0.22 μm PES syringe filters (Nalgene, Rochester, N.Y.). Following filtration, BBK32, FnbpA peptide D3, and Anastellin were titrated into 1 μM purified plasma fibronectin in TBS. After the addition of each aliquot, the fibronectin/protein mixture was carefully mixed five times with a 200 μl pipette and optical density at 600 nm was measured using a BioPhotometer (Eppendorf, New York, N.Y.) after 10 seconds.

[6] = biological target: T1, ^1F3 fibronectin module (Homo sapiens, UniProt P02751); assay: ELISA-type binding assay, immobilized 1F3 module
T1 construct: His-tag (N); made in house
T1 sequence (P02751 608-700): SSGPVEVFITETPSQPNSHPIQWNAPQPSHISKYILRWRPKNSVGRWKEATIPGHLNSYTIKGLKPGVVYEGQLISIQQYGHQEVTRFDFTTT
Description: Binding to ^1F3 (FIG. 1A), ^1-2F3 (FIG. 1B), and ^3F3 (FIG. 1C) was assessed using ELISA-type assays. F3 modules were immobilized in microtiter wells and blocked with Ovalbumin.
Binding of BBK32 to F3 modules was tested by coating 1 μg of recombinant ^1F3, ^1-2F3, and ^3F3 modules in 50 μl of 50 mM Tris-HCl, 150 mM NaCl, pH 7.5 (TBS) per well in Immulon 4HBX microtiter plates (Dynatech Laboratories, Chantilly, Va.) and incubating overnight at 4° C. The next day, the wells were washed with 200 μl TBS, 0.05% Tween 20, pH 7.4 (TBST) and blocked with 200 μl TBST containing 2% ovalbumin (Sigma, St. Louis, Mo.) for one hour at room temperature. […] Plates were incubated for one hour at room temperature. After washing with TBST, primary antibodies (rabbit IgG anti-BBK32 or rabbit IgG anti-FnbpA) were added to each well at a 0.48 μg/ml. Plates were incubated for one hour at room temperature and then were washed again with TBST.
Following washing, a 1:3000 dilution of HRP-conjugated goat-anti-rabbit antibodies (BioRad, Hercules, Calif.) was added to each well. Plates were incubated for one hour at room temperature and then washed with TBST. […] Absorbance was measured at 450 nm using a Thermo Max microplate reader (Molecular Devices, Sunnyvale, Calif.). Apparent Kds were calculated by assessing maximal half-binding (Y=Bmax·X/(Kd+X)).

[7] = test system: leukocyte (mononuclear cell) migration across endothelial cell layer; assay: Transendothelial migration assay (Transwell); assay type: cell-based; settings: IL-4 treated endothelial layer, IL-8 chemoattractant, four hours
Description: To determine if sFn decrease the migration of leukocytes to the infection site, transendothelial migration assays were assessed. In these assays endothelial cells were grown to confluence in Transwell® inserts and were encouraged to form tight junctions using interleukin 4 (IL-4). SFn formation was then induced to form on the surface of the endothelial cell layer using BBK32 (21-354), (21-205) and (153-175). A chemoattractant (IL-8) was added to the bottom chamber of the Transwell setup. Mononuclear cells were added to the upper chamber and permitted to migrate for four hours. Following incubation, cells in the bottom chamber were counted.

[8] = Stability of recombinant protein; assay type: physicochemical
[9] = test system: endothelial cells; assay: Annexin V apoptosis assay on endothelial cells; assay type: cell-based; settings: not shown
[10] = test system: fibronectin 56 kDa and 45 kDa gelatin binding fragments; assay: Far Western blot of thermolysin digest of fibronectin; settings: 56 kDa fragment vs 45 kDa gelatin binding fragment
Text: BBK32 binds to the ^1F1-^5F1 N-terminal segment of fibronectin by the tandem beta-zipper mechanism (6-7).

Row | Molecule | co-localization with fibronectin in the extracellular matrix [1] | immunostaining with monoclonal antibody IST 9 (EDA epitope of cellular fibronectin) [1] | effect on proliferation of endothelial cells (in words) [2] | concentration at which matrix assembly is blocked ([3]; high concentrations, 16 hour incubation causes disappearance of pre-existing matrix) | concentration at which fibronectin matrix assembly is promoted ([3]; low concentrations) | thermolysin fragment profile of induced fibronectin aggregates [4] | induction of plasma fibronectin aggregation (in words) [5] | binding to the ^1F3 module (in words) [6] | inhibition of transendothelial migration by induced sFn [7] | stability of the recombinant protein [8] | Annexin V assays (apoptosis) [9] | relative binding to fibronectin thermolysin fragments [10] | potency at inhibiting endothelial cell proliferation relative to Anastellin [2] | fibronectin aggregation on addition of detergent Triton X-100 ([5]; Triton X-100 added, not shown)
1 | Anastellin: Recombinant form of the C-terminal two-thirds of fibronectin ^1F3 with C-terminal His-tag; known inducer of superfibronectin | co-localize with fibronectin | markedly reduced immunostaining with IST 9 | concentration dependent manner | above 20 μM | less than 5 μM | very similar fragment profiles | induced fibronectin aggregation |  |  |  |  |  |  | 
2 | FnbpA peptide D3: S. aureus fibronectin-binding peptide D3 of MSCRAMM FnbpA, synthesized and purified by HPLC; used as control (GFNKHTEIIEEDTNKDKPSYQFGGHNSVDFEEDTLPK) | co-localize with fibronectin | no different from the staining observed for the no treatment control | only marginally affected the proliferation of cells |  |  |  | not the D3 protein induced fibronectin aggregation | did not to bind the ^1F3 module |  |  |  |  |  | 
3 | IDLTIDSDLRPKSSLQGIAGSNS (recombinant peptide from residues 153-175 of BBK32) [BBK32(153-175), BBK32 peptide, residues 153-175, containing the motifs similar to anastellin] |  | indicates conformational changes in fibronectin in matrices produced by fibroblasts | inhibits human umbilical vein endothelial cell proliferation in a concentration dependent manner |  |  |  | induce aggregation of plasma fibronectin in a concentration dependent manner |  | as effective at inhibiting transendothelial migration as the full length BBK32 protein |  |  |  |  | 
4 | B1 |  |  |  |  |  |  | induced aggregation of fibronectin at lower concentrations than BBK32(21-205) |  |  | unstable and susceptible to degradation |  |  |  | 
5 | B2 | co-localize with fibronectin | reduction of immunostaining with IST 9 | inhibited the proliferation of endothelial cells in a concentration dependent manner |  |  | very similar fragment profiles | induced fibronectin aggregation |  |  |  | negative | binds more strongly to the 56 kDa fragment than to the 45 kDa gelatin binding fragment | reproducibly more potent at inhibiting endothelial cell proliferation than Anastellin | inhibited fibronectin aggregation
